Measurements as given in publication PMC2989343 (Bioorganic & medicinal chemistry, 2010).

How the values were obtained:
[1] = target: human butyrylcholinesterase (BChE, EC 3.1.1.8) (Homo sapiens, UniProt P06276); experiment: Inhibition of freshly prepared human plasma BChE; assay type: biochemical; settings: from 60 to 18,000 nM
[2] = target: human acetylcholinesterase (AChE, EC 3.1.1.7) (Homo sapiens, UniProt P22303); experiment: Inhibition of freshly prepared human erythrocyte AChE
cholinesterase = settings: cited from earlier work
[3] = Observation for acute cholinergically-mediated adverse effects in rat; settings: anesthetized rat, 10 mg/kg i.p.

Sequence of human acetylcholinesterase (AChE, EC 3.1.1.7) (P22303 32-617 isoform P22303-2 limits assumed): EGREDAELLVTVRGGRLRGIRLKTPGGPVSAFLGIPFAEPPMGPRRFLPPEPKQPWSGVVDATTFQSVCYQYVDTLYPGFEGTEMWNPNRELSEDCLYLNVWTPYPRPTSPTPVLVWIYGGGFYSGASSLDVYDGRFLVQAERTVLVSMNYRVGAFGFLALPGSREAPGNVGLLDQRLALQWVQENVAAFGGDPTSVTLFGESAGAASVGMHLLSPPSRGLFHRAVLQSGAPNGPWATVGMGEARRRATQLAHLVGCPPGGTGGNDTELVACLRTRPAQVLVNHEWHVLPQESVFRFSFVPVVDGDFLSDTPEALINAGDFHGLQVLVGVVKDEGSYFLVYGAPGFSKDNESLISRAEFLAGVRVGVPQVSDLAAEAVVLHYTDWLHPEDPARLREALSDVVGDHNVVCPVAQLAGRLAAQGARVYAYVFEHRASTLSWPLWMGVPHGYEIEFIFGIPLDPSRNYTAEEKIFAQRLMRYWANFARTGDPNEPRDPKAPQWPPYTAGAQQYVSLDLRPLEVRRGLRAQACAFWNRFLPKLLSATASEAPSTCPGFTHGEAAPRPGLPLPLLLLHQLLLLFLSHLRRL
Sequence of human butyrylcholinesterase (BChE, EC 3.1.1.8) (P06276 29-602): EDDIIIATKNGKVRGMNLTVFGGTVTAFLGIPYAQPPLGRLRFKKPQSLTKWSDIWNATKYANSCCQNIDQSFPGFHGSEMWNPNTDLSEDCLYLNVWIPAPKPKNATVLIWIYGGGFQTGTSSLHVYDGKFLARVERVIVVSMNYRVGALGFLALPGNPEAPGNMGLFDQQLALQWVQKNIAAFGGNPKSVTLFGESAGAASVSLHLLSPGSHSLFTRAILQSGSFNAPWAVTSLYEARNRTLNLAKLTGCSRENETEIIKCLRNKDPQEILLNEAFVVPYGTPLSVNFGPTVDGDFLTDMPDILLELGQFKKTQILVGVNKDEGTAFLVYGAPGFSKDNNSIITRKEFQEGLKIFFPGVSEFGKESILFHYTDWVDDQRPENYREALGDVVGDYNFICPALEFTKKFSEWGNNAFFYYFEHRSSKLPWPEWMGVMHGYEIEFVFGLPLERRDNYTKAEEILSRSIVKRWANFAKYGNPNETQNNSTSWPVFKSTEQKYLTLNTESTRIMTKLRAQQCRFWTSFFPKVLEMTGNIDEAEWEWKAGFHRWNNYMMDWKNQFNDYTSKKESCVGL

Q: For `COS(=O)(=O)[O-].C[N+](C)(C)c1cccc(OC(=O)Nc2ccccc2)c1` [Compound 6, N-Phenylcarbamate of 3-phenol-1-trimethylammonium methylsulfate], which “fold decline of BChE IC50 value relative to neostigmine (3)” value [1] is on record?
A: Its value is 300 fold.

Q: For `O=C(Nc1ccccc1)Oc1cccnc1` [Compound 7, N-Phenylcarbamate of 3-hydroxypyridine], which “Selectivity A/B or B/A” value ([2]; given in words only, no ratio) is on record?
A: Its value is “None”.

Q: With `C[n+]1cccc(OC(=O)Nc2ccccc2)c1.[Br-]` [Compound 8, N-Phenylcarbamate of 3-hydroxy-1-methylpyridinium bromide] as the compound, how does the “AChE inhibitory activity (in words)” value ([2]; human AChE, versus pyridostigmine (4)) read?
A: The value was “entire loss of AChE activity”.

Q: For `CNC(=O)Oc1ccc2c(c1)[C@]1(C)CCN(C)[C@@H]1N2C` [Compound 9, (−)-Physostigmine], which “human pharmacodynamic half-life (T1/2)” value (cholinesterase) is on record?
A: The value was 30 min.

Q: With `CC(C)c1ccc(NC(=O)Oc2ccc3c(c2)[C@]2(C)CC[N+](C)(C)C2N3C)cc1.[Br-]` (stereo partly drawn) [Compound 16, N(1)-Methylammonium bromide of (−)-cymserine] as the compound, how does the “central (tremor) or peripheral (lacrimation and salivation) cholinergically-mediated adverse effects” value [3] read?
A: Its value is “No central (tremor) or peripheral (lacrimation and salivation) cholinergically-mediated adverse effects were evident”.
